How the values were obtained:
physchem = conditions: buffer, pH 7.4
in vitro = conditions: human
in vivo = conditions: rat, iv
Hepatocyte = assay: Intrinsic clearance in rat hepatocytes measured per 10^6 cells; assay type: ADME, cell-based
[1] = Oral bioavailability in dog; assay type: ADME, organism-based, Canis lupus familiaris; conditions: in vivo
[2] = Oral bioavailability in rat; assay type: ADME, organism-based; conditions: in vivo
[3] = Half life in iv dosed dog; assay type: ADME, organism-based, Canis lupus familiaris; conditions: in vivo

| SMILES | logD (physchem) | microsomal CLint (in vitro; liver microsomes) [µL/min/mg] | other results |
| --- | --- | --- | --- |
| N#Cc1ccccc1C[C@@H](C(=O)O)N1CCC(CN2CCC(Oc3ccc(Cl)c(Cl)c3)CC2)CC1 | 2.1 |  | microsomal CLint (in vitro; microsomes): 6 µL/min/mg |
| N#Cc1ccc(C[C@@H](C(=O)O)N2CCC(CN3CCC(Oc4ccc(Cl)c(Cl)c4)CC3)CC2)cc1 | 2.2 |  |  |
| O=C(O)[C@H](Cc1cccc(C(F)(F)F)c1)N1CCC(CN2CCC(Oc3ccc(Cl)c(Cl)c3)CC2)CC1 |  | 7 |  |
| O=C(O)[C@H](Cc1ccc(F)cc1)N1CCC(CN2CCC(Oc3ccc(Cl)cc3)CC2)CC1 | 1.9 |  |  |
| Cc1cc(Cl)ccc1OC1CCN(CC2CCN([C@@H](Cc3ccc(F)cc3)C(=O)O)CC2)CC1 | 2.5 |  |  |
| Cc1cc(F)ccc1OC1CCN(CC2CCN([C@@H](Cc3ccc(F)cc3)C(=O)O)CC2)CC1 |  | < 3 |  |
| Cc1c(Cl)ccc(OC2CCN(CC3CCN([C@@H](Cc4ccc(F)cc4)C(=O)O)CC3)CC2)c1Cl | 3.2 | < 3 | half-life (in vivo): 0.8 h |
| Cc1c(OC2CCN(CC3CCN([C@@H](Cc4ccc(F)cc4)C(=O)O)CC3)CC2)ccc(Cl)c1Cl | 3.5 | < 3 | CLH (Hepatocyte): < 3 µL/min/1e6 cells; half-life (in vivo): 10 h |
| Cc1c(OC2CCN(CC3CCN([C@@H](Cc4ccc(F)cc4)C(=O)O)CC3)CC2)ccc(C#N)c1Cl | 2.2 |  | microsomal CLint (in vitro; microsomes): 6 µL/min/mg |
| Cc1c(OC2CCN(CC3CCN([C@@](C)(Cc4ccc(F)cc4)C(=O)O)CC3)CC2)ccc(Cl)c1Cl | 3 |  |  |
| Cc1cc(Cl)ccc1OC1CCN(CC2CCN([C@@](C)(Cc3ccc(F)cc3)C(=O)O)CC2)CC1 | 2.6 |  | bioavailability [1]: 83%; bioavailability [2]: 52%; half-life (in vivo): 8.7 h; half-life [3]: 12 h |
| Cc1cc(OC2CCN(CC3CCN([C@@](C)(Cc4ccc(F)cc4)C(=O)O)CC3)CC2)ccc1Cl | 2.1 |  | bioavailability [2]: 84% |
| Cc1cc(F)ccc1OC1CCN(CC2CCN([C@@](C)(Cc3ccc(F)cc3)C(=O)O)CC2)CC1 | 2 |  | bioavailability [2]: 24% |
| Cc1ccc(S(=O)(=O)NC(=O)N2CCC(N3CCC(Oc4ccc(Cl)c(Cl)c4)CC3)CC2)cc1 |  |  | bioavailability [2]: 30%; half-life (in vivo): 2.7 h; CLint scaled (in vitro; liver microsomes): 1 mL/min/kg |
| O=C(O)[C@H](c1ccccc1)N1CCC(CN2CCC(Oc3ccc(Cl)c(Cl)c3)CC2)CC1 |  |  | CLint scaled (in vitro; microsomes): < 3 mL/min/kg |
| O=C(O)[C@@H](c1ccccc1)N1CCC(CN2CCC(Oc3ccc(Cl)c(Cl)c3)CC2)CC1 |  |  | bioavailability [2]: 5%; half-life (in vivo): 4.8 h; CLint scaled (in vitro; microsomes): < 3 mL/min/kg |
| O=C(O)[C@H](Cc1ccccc1)N1CCC(CN2CCC(Oc3ccc(Cl)c(Cl)c3)CC2)CC1 | 2.5 | < 3 | bioavailability [2]: 62%; half-life (in vivo): 12 h |
| O=C(O)[C@@H](Cc1ccccc1)N1CCC(CN2CCC(Oc3ccc(Cl)c(Cl)c3)CC2)CC1 | 2.5 | < 3 |  |
| O=C(O)C(c1ccccc1)N1CCCC(CN2CCC(Oc3ccc(Cl)c(Cl)c3)CC2)C1 (mixture of isomers) |  |  | CLint scaled (in vitro; liver microsomes): < 3 mL/min/kg |
| O=C(O)C(c1ccccc1)N1CCO[C@H](CN2CCC(Oc3ccc(Cl)c(Cl)c3)CC2)C1 (mixture of isomers) |  |  | bioavailability [2]: 36% |
| O=C(O)C(c1ccccc1)N1CCC(N2CCC(Oc3ccc(Cl)c(Cl)c3)CC2)CC1 (racemic) |  |  | bioavailability [2]: 13%; half-life (in vivo): 2.4 h; CLint scaled (in vitro; liver microsomes): 6 mL/min/kg |
| O=C(O)C(c1ccccc1)N1CCC(CN2CCC(Oc3ccc(Cl)c(Cl)c3)CC2)CC1 (racemic) |  |  | CLint scaled (in vitro; microsomes): < 3 mL/min/kg |

Further lines, with some results ahead:

| logD (physchem) | microsomal CLint (in vitro; liver microsomes) [µL/min/mg] | SMILES | other results |
| --- | --- | --- | --- |
| 2.3 | < 5 | N#Cc1cccc(C[C@@H](C(=O)O)N2CCC(CN3CCC(Oc4ccc(Cl)c(Cl)c4)CC3)CC2)c1 |  |
| 2.5 | < 3 | Cc1ccccc1C[C@@H](C(=O)O)N1CCC(CN2CCC(Oc3ccc(Cl)c(Cl)c3)CC2)CC1 |  |
| 2.8 | < 6 | Cc1cccc(C[C@@H](C(=O)O)N2CCC(CN3CCC(Oc4ccc(Cl)c(Cl)c4)CC3)CC2)c1 |  |
| 3 | 14 | Cc1ccc(C[C@@H](C(=O)O)N2CCC(CN3CCC(Oc4ccc(Cl)c(Cl)c4)CC3)CC2)cc1 |  |
| 2.8 | 8 | COc1ccccc1C[C@@H](C(=O)O)N1CCC(CN2CCC(Oc3ccc(Cl)c(Cl)c3)CC2)CC1 |  |
| 2.8 |  | O=C(O)c1ccccc1N1CCC(CN2CCC(Oc3ccc(Cl)c(Cl)c3)CC2)CC1 | bioavailability [2]: 58%; half-life (in vivo): 4.1 h |
| 2.2 |  | O=C(O)c1cccc(N2CCC(CN3CCC(Oc4ccc(Cl)c(Cl)c4)CC3)CC2)c1 |  |
| 2.3 |  | O=C(O)c1ccc(N2CCC(CN3CCC(Oc4ccc(Cl)c(Cl)c4)CC3)CC2)cc1 |  |
| 1.6 |  | O=C(O)Cc1cccc(N2CCC(CN3CCC(Oc4ccc(Cl)c(Cl)c4)CC3)CC2)c1 |  |
| 1.8 |  | O=C(O)Cc1ccc(N2CCC(CN3CCC(Oc4ccc(Cl)c(Cl)c4)CC3)CC2)cc1 |  |
| 2 |  | O=C(O)COc1ccccc1N1CCC(CN2CCC(Oc3ccc(Cl)c(Cl)c3)CC2)CC1 |  |
| 2 |  | O=C(O)COc1cccc(N2CCC(CN3CCC(Oc4ccc(Cl)c(Cl)c4)CC3)CC2)c1 |  |
| 1.1 |  | O=C(O)c1ccc(CN2CCC(CN3CCC(Oc4ccc(Cl)c(Cl)c4)CC3)CC2)cc1 |  |
| 1.7 |  | O=C(O)c1cccnc1N1CCC(CN2CCC(Oc3ccc(Cl)c(Cl)c3)CC2)CC1 |  |
|  | < 5 | O=C(O)[C@H](Cc1ccccc1Cl)N1CCC(CN2CCC(Oc3ccc(Cl)c(Cl)c3)CC2)CC1 |  |
| 2.9 | < 3 | O=C(O)[C@H](Cc1ccc(Cl)cc1)N1CCC(CN2CCC(Oc3ccc(Cl)c(Cl)c3)CC2)CC1 |  |
| 2.6 |  | O=C(O)[C@H](Cc1ccccc1F)N1CCC(CN2CCC(Oc3ccc(Cl)c(Cl)c3)CC2)CC1 |  |
| 2.7 |  | O=C(O)[C@H](Cc1cccc(F)c1)N1CCC(CN2CCC(Oc3ccc(Cl)c(Cl)c3)CC2)CC1 |  |
| 2.6 | 4 | O=C(O)[C@H](Cc1ccc(F)cc1)N1CCC(CN2CCC(Oc3ccc(Cl)c(Cl)c3)CC2)CC1 |  |
